PMC3462168 (Analytical biochemistry, 2010)
Peptide text beside a SMILES is read from it. * marks the point of attachment. 5FAM = O=C1OC2(c3ccc(O)cc3Oc3cc(O)ccc32)c2ccc(C(=O)*)cc21

Experiments:
hRSV 5HB = test: FP specificity cross-test: EBV gp42 FITC-30mer against hRSV 5HB; format: binding, hRSV strain A2; conditions: 5 nM FITC-30mer, wide range of 5HB concentrations
EBV gH/gL complex [1] = conditions: read-out: IC50 of binding to EBV gH/gL protein; cited from earlier work
[2] = target: T1, hRSV F protein 5-Helix Bundle (5HB) (Human respiratory syncytial virus A, UniProt P03420); test: Competitive FP binding assay; parameters: species or system hRSV strain A2; conditions: for inhibition at 100 µM: read-out: % Inhibition (100 µM)
hRSV = test: Antiviral activity of C20; format: cell-based; conditions: read-out: EC50, antiviral activity; methods only in supporting information
[3] = target: T1, hRSV F protein 5-Helix Bundle (5HB); test: ELISA of Fl-C35 binding to 5HB; parameters: species or system hRSV strain A2; conditions: data in supporting information
EBV gH/gL complex [4] = conditions: 5 nM Fl-C35, increasing amount of EBV gH/gL

KPNVEVWPVAAPPPVAEQEYGDKEVKLPHW [FITC-30mer]
Binding of EBV gp42 FITC-30mer to hRSV 5HB (negative control) (hRSV 5HB): no evidence of nonspecific binding | IC50 (EBV gH/gL complex [1]): 0.0013 µM

CC[C@H](C)[C@H](N)C(=O)N[C@@H](CO)C(=O)N[C@@H](CCC(N)=O)C(=O)N[C@H](C(=O)N[C@@H](CC(N)=O)C(=O)N[C@@H](CCC(=O)O)C(=O)N[C@@H](CCCCN)C(=O)N[C@H](C(=O)N[C@@H](CC(N)=O)C(=O)N[C@@H](CCC(N)=O)C(=O)N[C@@H](CO)C(=O)N[C@@H](CC(C)C)C(=O)N[C@@H](C)C(=O)N[C@@H](Cc1ccccc1)C(=O)N[C@H](C(=O)N[C@@H](CCCNC(=N)N)C(=O)N[C@@H](CCCCN)C(=O)N[C@@H](CO)C(=O)N[C@@H](CC(=O)O)C(=O)N[C@@H](CCC(=O)O)C(=O)O)[C@@H](C)CC)[C@@H](C)CC)C(C)C [C20] (H-ISQVNEKINQSLAFIRKSDE-OH)
inhibition at 100 µM [2]: > 90% | EC50 (hRSV): > 12.5 µM

CC[C@H](C)[C@H](NC(=O)[C@H](Cc1ccccc1)NC(=O)[C@H](C)NC(=O)[C@H](CC(C)C)NC(=O)[C@H](CO)NC(=O)[C@H](CCC(N)=O)NC(=O)[C@H](CC(N)=O)NC(=O)[C@@H](NC(=O)[C@H](CCCCN)NC(=O)[C@H](CCC(=O)O)NC(=O)[C@H](CC(N)=O)NC(=O)[C@@H](NC(=O)[C@H](CCC(N)=O)NC(=O)[C@H](CO)NC(=O)[C@@H](NC(=O)[C@H](CO)NC(=O)[C@H](C)NC(=O)[C@H](CC(=O)O)NC(=O)[C@H](Cc1ccccc1)NC(=O)[C@H](CCC(=O)O)NC(=O)[C@H](CC(=O)O)NC(=O)[C@H](CO)NC(=O)[C@@H]1CCCN1C(=O)[C@H](Cc1ccccc1)NC(=O)[C@@H](NC(=O)[C@H](CC(C)C)NC(=O)[C@@H]1CCCN1C(=O)[C@H](CC(=O)O)NC(=O)[C@@H](N)Cc1ccc(O)cc1)C(C)C)[C@@H](C)CC)C(C)C)[C@@H](C)CC)C(=O)N[C@@H](CCCNC(=N)N)C(=O)N[C@@H](CCCCN)C(=O)N[C@@H](CO)C(=O)N[C@@H](CC(=O)O)C(=O)N[C@@H](CCC(=O)O)C(=O)N[C@@H](CC(C)C)C(=O)O [C35] (H-YDPLVFPSDEFDASISQVNEKINQSLAFIRKSDEL-OH)
IC50 [2]: 0.0385 µM | inhibition at 100 µM [2]: 100%

CC[C@H](C)[C@H](NC(=O)[C@H](Cc1ccccc1)NC(=O)[C@H](C)NC(=O)[C@H](CC(C)C)NC(=O)[C@H](CO)NC(=O)[C@H](CCC(N)=O)NC(=O)[C@H](CC(N)=O)NC(=O)[C@@H](NC(=O)[C@H](CCCCN)NC(=O)[C@H](CCC(=O)O)NC(=O)[C@H](CC(N)=O)NC(=O)[C@@H](NC(=O)[C@H](CCC(N)=O)NC(=O)[C@H](CO)NC(=O)[C@@H](NC(=O)[C@H](CO)NC(=O)[C@H](C)NC(=O)[C@H](CC(=O)O)NC(=O)[C@H](Cc1ccccc1)NC(=O)[C@H](CCC(=O)O)NC(=O)[C@H](CC(=O)O)NC(=O)[C@H](CO)NC(=O)[C@@H]1CCCN1C(=O)[C@H](Cc1ccccc1)NC(=O)[C@@H](NC(=O)[C@H](CC(C)C)NC(=O)[C@@H]1CCCN1C(=O)[C@H](CC(=O)O)NC(=O)[C@H](Cc1ccc(O)cc1)NC(=O)c1ccc2c(c1)C(=O)OC21c2ccc(O)cc2Oc2cc(O)ccc21)C(C)C)[C@@H](C)CC)C(C)C)[C@@H](C)CC)C(=O)N[C@@H](CCCNC(=N)N)C(=O)N[C@@H](CCCCN)C(=O)N[C@@H](CO)C(=O)N[C@@H](CC(=O)O)C(=O)N[C@@H](CCC(=O)O)C(=O)N[C@@H](CC(C)C)C(=O)O [Fl-C35] (5FAM-YDPLVFPSDEFDASISQVNEKINQSLAFIRKSDEL-OH)
Specific binding of Fl-C35 to 5HB in ELISA [3]: confirmed | Binding of Fl-C35 to EBV gH/gL complex (negative control) (EBV gH/gL complex [4]): no evidence of nonspecific binding

CC[C@H](C)[C@H](NC(=O)[C@H](Cc1ccccc1)NC(=O)[C@H](C)NC(=O)[C@H](CC(C)C)NC(=O)[C@H](CO)NC(=O)[C@H](CCC(N)=O)NC(=O)[C@H](CC(N)=O)NC(=O)[C@@H](NC(=O)[C@H](CCCCN)NC(=O)[C@H](CCC(=O)O)NC(=O)[C@H](CC(N)=O)NC(=O)[C@@H](NC(=O)[C@H](CCC(N)=O)NC(=O)[C@H](CO)NC(=O)[C@@H](NC(=O)[C@H](CO)NC(=O)[C@H](C)NC(=O)[C@H](CC(=O)O)NC(=O)[C@H](Cc1ccccc1)NC(=O)[C@H](CCC(=O)O)NC(=O)[C@H](CC(=O)O)NC(=O)[C@H](CO)NC(=O)[C@@H]1CCCN1C(=O)[C@H](Cc1ccccc1)NC(=O)[C@@H](N)C(C)C)[C@@H](C)CC)C(C)C)[C@@H](C)CC)C(=O)N[C@@H](CCCNC(=N)N)C(=O)N[C@@H](CCCCN)C(=O)N[C@@H](CO)C(=O)N[C@@H](CC(=O)O)C(=O)N[C@@H](CCC(=O)O)C(=O)O [C30] (H-VFPSDEFDASISQVNEKINQSLAFIRKSDE-OH)
inhibition at 100 µM [2]: 100%
